# Measurements as given in US20250123282A1, “METHODS FOR EVALUATION AND TREATMENT OF TYROSINE KINASE INHIBITOR (TKI)-RESISTANT ACUTE MYELOID LEUKEMIA” (LOMA LINDA UNIVERSITY, priority 2021, published 2025).
# Assays:
# MV4-11 = test: GILT-based combinatory treatments for MV4-11 in vitro (synergy, relapse, FACS, imaging); type: cell-based, human
# Text: FLT3, the most frequently mutated gene in AML patients, is often associated with poorer overall survival with an increased risk of relapse. However, the anti-leukemic effects of the latest FLT3 inhibitors as monotherapy or in combination with standard treatments are constrained by a short duration of response and a high rate of relapse. Accordingly, whether targeting the compensation pathways along with administration of FLT3 inhibitors, e.g., GILT, prevents relapse. A list of the in vitro trials of GILT in combination with inhibitors (commercially available) targeting new pathways on MV4-11 is provided in Table 1. […]
# Flow Cytometry (FACS). […] About 1×10^4˜10^6 cells in 100 μl FACS buffer (PBS containing 1% FBS and 0.05% sodium azide) were stained with various fluorescence-conjugated antibodies specific for the desired cell surface proteins at 4° C. for 30 min. The surface-stained cells were then fixed and permeabilized using the appropriate reagents (e.g. the BD Pharmingen Cytofix/Cytoperm buffer) and stained with different fluorescence-conjugated antibodies specific for the desired intracellular proteins at 4° C. for 2 hours in the permeabilizing buffer (e.g. the BD Perm/Wash buffer). […] Finally, the cells were washed twice in the permeabilizing buffer and twice in the FACS buffer before being analyzed on the BD FACSAria II. […]
# primary AML BMMNC = test: Ex vivo combination treatment of primary AML BMMNC (FACS, imaging, qPCR); type: cell-based, human; conditions: 80 nM GILT
# Method: Whether targeting the MIF-CXCR2 signaling pathway would effectively treat AML blasts were investigated. First, the combination of GILT with ribosomal protein S19 (RPS19) on MV4-11 blasts was tested in vitro. RPS19, a MIF inhibitor, has been reported to suppress cisplatin-activated MIF-CD74-NFκB signaling pathway in acute kidney injury. […] The combination of 80 nM GILT with 50 uM SB225002, a CXCR2-inhibitor (CXCR2-I) on MV4-11 blasts in vitro were examined. […] The anti-leukemic effect of combining GILT with CXCR2-I on primary BMMNC ex vivo were examined. […] There may be alternative cytokine pathways compensating for the defect of MIF-CXCR2 pathways.
# The combination of 80 nM GILT and 50 uM BAY11-7821 (a NFκB-I) was tested as a novel therapeutic approach for AML.
# Next, the anti-leukemic effect of the combination was examined on primary BMMNC from refractory AML patients (Patient #7, Table 4).
# Human Samples. AML bone marrow (BM) mononuclear cells (BMMNC) (Patients #1-7, Table 4) were obtained from the City of Hope National Medical Center (COHNMC). All donor patients signed an informed consent form. Sample acquisition was approved by the Institutional Review Boards at the LLUMC and the COHNMC in accordance with an assurance filed with and approved by the Department of Health and Human Services, and it met all requirements of the Declaration of Helsinki.
# For MIF in vitro experiments, different doses of MIF were added to 1 ml of 1×10^6 MV4-11 cells or RAW264.7 cells for each experimental group in 24-well plates. Two days after the one dose treatment, cells were then collected for either analyses by FACS and qPCR. As combination agents to treat blasts in vitro or ex vivo, one dose of 80 nM GILT with one dose of different inhibitors were added to 1 ml of 1×10^6 MV4-11 cells or 1 ml of 0.5-1×10^6 primary AML BMMNC for each experimental group in 24-well plates. Dose-dependent experiments of CXCR2 inhibitor and NFκB inhibitor with or without 80 nM GILT were performed. […] Three days after the one dose treatment, cells were then collected for either analyses by FACS and qPCR.
# Flow Cytometry (FACS). Cells were harvested and examined for the expression of cell surface biomarkers (CD) and intracellular proteins by multichromatic FACS as previously described. About 1×10^4˜10^6 cells in 100 μl FACS buffer (PBS containing 1% FBS and 0.05% sodium azide) were stained with various fluorescence-conjugated antibodies specific for the desired cell surface proteins at 4° C. for 30 min. The surface-stained cells were then fixed and permeabilized using the appropriate reagents (e.g. the BD Pharmingen Cytofix/Cytoperm buffer) and stained with different fluorescence-conjugated antibodies specific for the desired intracellular proteins at 4° C. for 2 hours in the permeabilizing buffer (e.g. the BD Perm/Wash buffer). Concentrations of the Abs were used per the manufacturers' recommendations. Finally, the cells were washed twice in the permeabilizing buffer and twice in the FACS buffer before being analyzed on the BD FACSAria II. Data was analyzed using the FlowJo software (Tree Star Inc., Ashland, OR).
# RNA Isolation and Real-Time Polymerase Chain Reaction (qPCR) analysis. MV4-11 and MOLM-14 cells were cultured with the presence of TKI drugs for 72 hours or re-plated 28 days after the treatment of TKI drugs. Cells were isolated for RNA isolation and qPCR analysis as previously described. Total RNA was isolated using the RNeasy Micro Kit (Qiagen) according to the manufacturer's instruction. First-strand cDNA was synthesized using the SuperScript III Reverse Transcriptase (Invitrogen; Life Technologies). With an Applied Biosystems 7900HT Real-Time PCR machine, qPCR was performed and analyzed using known primers for the specific markers. The PCR conditions were 10 minutes at 95° C. followed by 40 cycles of 10 seconds at 95° C. and 15 seconds at 60° C. The relative expression level of a gene was determined using the ΔΔCt method and normalized to GAPDH.
# [1] = newly diagnosed AML, Patient #5, 50 uM BAY11-7821
# [2] = primary BMMNC ex vivo (Patient #2 and #3), 50 uM CXCR2-I
smiles,measurement,setting,value
"CCc1nc(C(N)=O)c(Nc2ccc(N3CCC(N4CCN(C)CC4)CC3)c(OC)c2)nc1NC1CCOCC1 [GILT, Gilteritinib]",population of viable blasts (FACS),"MV4-11; MV4-11, 3 days after combination treatment",26.9%
same,viable Ki67+CD33+CD44+ cells (cell number count),"MV4-11; MV4-11, 7 days after combination treatment",180 cells
same,percentage of Ki67+CD33+ proliferating blasts,primary AML BMMNC; [1],73.3%
same,percentage of viable CD33+CD13+ primary blasts,primary AML BMMNC; [1],35.8%
same,percentage of Ki67+CD13+ blasts,primary AML BMMNC; [2],60%
same,percentage of viable CD33+CD13+ primary blasts,primary AML BMMNC; [2],7.14%
